Test results: patent US10450260B2, “NO- and H2S-releasing compounds” (RESEARCH FOUNDATION OF THE CITY UNIVERSITY OF NEW YORK, priority 2011, dated 2019)
Read-outs that look alike come from different tables or passages of the source.

How the values were obtained:
Format in all cases: cell-based
[1] = system: MIA PaCa-2 human pancreatic cancer; experiment: MTT cell growth inhibition, MIA PaCa2; details: for IC50: Homo sapiens, MIA PaCa-2; for Ratio NSAID/NOSH-NSAID, MIAPaCa2: fold-enhancement in potency over the parent compound
Experimental: (§1) HT-29, SW-480 and HCT-15 human colon adenocarcinoma, MIA PaCa-2 and BxPC-3 human pancreatic cancer, LNCAP human prostate cancer, A549 human lung cancer, MCF-7 (estrogen receptor positive), MDA-MB 231 and SK-BR-3 (estrogen receptor negative) human breast cancer, and Jurkats human leukemia cell lines were obtained from American Type Tissue Collection (Manassas, Va.). All cells lines were grown as monolayers except for the Jurkats which were grown in suspension. The pancreatic and breast cancer cells were grown in Dulbecco's modified Eagle's medium, the prostate, Jurkat, SW-480 and HCT-15 colon cells were grown in RPMI 1640 medium, the lung cells were grown in F-12 and the colon HT-29 cells were grown in McCoy 5A. All media were supplemented with 10% fetal calf serum (Invitrogen, Carlsbad, Calif.) penicillin (50 U/ml), and streptomycin (50 μg/ml) (Invitrogen, Carlsbad, Calif.). Cells were seeded on culture dishes at a density of 25×10^3 cells/cm^2 and incubated at 37° C. in 5% CO2 and 90% relative humidity. Single cell suspensions were obtained by trypsinization (0.05% trypsin/EDTA), and cells were counted using a hemocytometer. Viability was determined by the trypan blue dye exclusion method.
(§2) Cell growth inhibitory effect of NOSH compounds were measured using a colorimetric MTT assay kit (Roche, Indianapolis, Ind.). Cancer cells were plated in 96-well plates at a density of 50,000 cells/well. The cells were incubated for 24 h with different concentrations of NOSH compounds. After the indicated time, 10 μl of MTT dye (3-[4,5-dimethylthiazol-2-yl]-2,5-diphenyl tetrazolium bromide, 5 mg/ml in phosphate buffered saline), was added to each well, and the plates were incubated for 2 hours at 37° C. Then, the media was aspirated, and add 100 μl of the solubilization solution (10% SDS in 0.01 M HCl) was added to each well to solubilize the formant crystals. The absorbance of the plates was measured on an ELISA reader at a wavelength of 570 nm. Each sample was performed in triplicate, and the entire experiment was repeated three times.
(§3) HT-29, SW-480 and HCT-15 human colon adenocarcinoma, MIA PaCa-2 and BxPC-3 human pancreatic cancer, LNCAP human prostate cancer, A549 and H383 human lung cancer, MCF-7, MDA-MB 231 and SK-BR-3 human breast cancer and Jurkat T cell human leukemia cell lines were obtained from American Type Tissue Collection (Manassas, Va.) All cells lines were grown as monolayers except for the Jurkat T cells which were grown as suspension culture. The pancreatic and breast cancer cells were grown in Dulbecco's modified Eagle's medium, the prostate, Jurkat, SW-480 and HCT-15 colon cells were grown in RPMI 1640 medium, the lung cells were grown in F-12 and the colon HT-29 cells were grown in McCoy 5A. All media were supplemented with 10% fetal calf serum (Invitrogen, Carlsbad, Calif.) penicillin (50 U/ml), and streptomycin (50 μg/ml) (Invitrogen, Carlsbad, Calif.). Cells were seeded on culture dishes at a density of 25×10^3 cells/cm^2 and incubated at 37° C. in 5% CO2 and 90% relative humidity. Single cell suspensions were obtained by trypsinization (0.05% trypsin/EDTA), and cells were counted using a hemacytometer. The final DMSO concentration was adjusted in all media to 1%. Viability was determined by the trypan blue dye exclusion method.
(§4) Cell growth inhibitory effect of all NOSH-NSAIDs was measured using a colorimetric MTT assay kit (Roche, Indianapolis, Ind.). Cancer cells were plated in 96-well plates at a density of 30,000-50,000 cells/well depending on cell type. The cells were incubated for 24 hours with different concentrations of NOSH-NSAIDs. After the indicated time, 10 μL of MTT dye (3-[4,5-dimethylthiazol-2-yl]-2,5-diphenyl tetrazolium bromide, 5 mg/mL in phosphate buffered saline), was added to each well, and the plates were incubated for 2 hours at 37° C. Then, the media was aspirated, and 100 μL of the solubilization solution (10% SDS in 0.01 M HCl) was added to each well to solubilize the formant crystals. […]

[2] = system: Jurkat T cell human leukemia; experiment: MTT cell growth inhibition, Jurkat; details: for IC50: Homo sapiens, Jurkat; for Ratio NSAID/NOSH-NSAID, Jurkat: fold-enhancement in potency over the parent compound
Experimental: (§5) All cells lines were grown as monolayers except for the Jurkats which were grown in suspension. […] All media were supplemented with 10% fetal calf serum (Invitrogen, Carlsbad, Calif.) penicillin (50 U/ml), and streptomycin (50 μg/ml) (Invitrogen, Carlsbad, Calif.). Cells were seeded on culture dishes at a density of 25×10^3 cells/cm^2 and incubated at 37° C. in 5% CO2 and 90% relative humidity. Single cell suspensions were obtained by trypsinization (0.05% trypsin/EDTA), and cells were counted using a hemocytometer. Viability was determined by the trypan blue dye exclusion method.
as §2
(§6) All media were supplemented with 10% fetal calf serum (Invitrogen, Carlsbad, Calif.) penicillin (50 U/ml), and streptomycin (50 μg/ml) (Invitrogen, Carlsbad, Calif.). Cells were seeded on culture dishes at a density of 25×10^3 cells/cm^2 and incubated at 37° C. in 5% CO2 and 90% relative humidity. Single cell suspensions were obtained by trypsinization (0.05% trypsin/EDTA), and cells were counted using a hemacytometer. The final DMSO concentration was adjusted in all media to 1%. Viability was determined by the trypan blue dye exclusion method.
(§7) Cell growth inhibitory effect of all NOSH-NSAIDs was measured using a colorimetric MTT assay kit (Roche, Indianapolis, Ind.). Cancer cells were plated in 96-well plates at a density of 30,000-50,000 cells/well depending on cell type. The cells were incubated for 24 hours with different concentrations of NOSH-NSAIDs. After the indicated time, 10 μL of MTT dye (3-[4,5-dimethylthiazol-2-yl]-2,5-diphenyl tetrazolium bromide, 5 mg/mL in phosphate buffered saline), was added to each well, and the plates were incubated for 2 hours at 37° C. Then, the media was aspirated, and 100 μL of the solubilization solution (10% SDS in 0.01 M HCl) was added to each well to solubilize the formant crystals. The absorbance of the plates was measured on a spectrophotometric plate reader at a wavelength of 570 nm. Each experiment was performed in triplicate, and the entire experiment was repeated three times.

[3] = system: BxPC-3 human pancreatic cancer; experiment: MTT cell growth inhibition, BxPC3; details: for IC50: Homo sapiens, BXPC-3, read-out: IC50 for cell growth inhibition, Pancreas BxPC3; for Ratio NSAID/NOSH-NSAID, BxPC3: fold-enhancement in potency over the parent compound
Experimental: as §1, §2, §3, §4

[4] = system: SK-BR-3 human breast cancer; experiment: MTT cell growth inhibition, SKBR3; details: for IC50: Homo sapiens, SK-BR-3; for Ratio NSAID/NOSH-NSAID, SKBR3: fold-enhancement in potency over the parent compound
Experimental: as §5, §2, §6, §7

[5] = 24 hours, read-out: IC50 for cell growth inhibition, Pancreas MIA PaCa2
[6] = 24 hours (Table 7), read-out: IC50 for cell growth inhibition, Pancreas MIAPaCa2

| SMILES | IC50 [1, 5] [µM] | IC50 ([2]; 24 hours) [µM] | IC50 ([3]; 24 hours) [µM] | IC50 ([4]; 24 hours) [µM] | IC50 [1, 6] [µM] | Ratio NSAID/NOSH-NSAID, MIAPaCa2 [1] | IC50 ([2]; 24 hours (Table 7)) [µM] | Ratio NSAID/NOSH-NSAID, Jurkat [2] | IC50 ([3]; 24 hours (Table 7)) [µM] | Ratio NSAID/NOSH-NSAID, BxPC3 [3] | IC50 ([4]; 24 hours (Table 7)) [µM] | Ratio NSAID/NOSH-NSAID, SKBR3 [4] |
| --- | --- | --- | --- | --- | --- | --- | --- | --- | --- | --- | --- | --- |
| O=C(CCCO[N+](=O)[O-])Oc1ccccc1C(=O)Oc1ccc(-c2cc(=S)ss2)cc1 [NOSH-1, 4-(3-thioxo-3H-1,2-dithiol-5-yl)phenyl 2-((4-(nitrooxy)butanoyl)oxy)benzoate] | 0.047 ± 0.005 | 0.1 ± 0.008 | 0.057 ± 0.004 | 0.075 ± 0.005 |  |  |  |  |  |  |  |  |
| O=C(CCC(=O)Oc1ccccc1C(=O)Oc1ccc(-c2cc(=S)ss2)cc1)OCCCCO[N+](=O)[O-] [NOSH-2, 4-(nitrooxy)butyl (2-((4-(3-thioxo-3H-1,2-dithiol-5-yl)phenoxy)carbonyl)phenyl) succinate] | 0.102 ± 0.018 | 0.09 ± 0.005 | 0.1 ± 0.009 | 0.088 ± 0.007 |  |  |  |  |  |  |  |  |
| NC(=S)c1ccc(OC(=O)c2ccccc2OC(=O)CCCO[N+](=O)[O-])cc1 [NOSH-3, 4-carbamothioylphenyl 2-((4-(nitrooxy)butanoyl)-oxy)benzoate] | 4.8 ± 0.322 | 7 ± 0.321 | 5.5 ± 0.39 | 6.5 ± 0.268 |  |  |  |  |  |  |  |  |
| O=C(CCCC[C@@H]1CCSS1)Oc1ccccc1C(=O)OCCCCO[N+](=O)[O-] [NOSH-4, (R)-4-(nitrooxy)butyl 2-((5-(1,2-dithiolan-3-yl)pentanoyl)oxy)benzoate] | 0.8 ± 0.039 | 0.24 ± 0.011 | 0.7 ± 0.032 | 0.55 ± 0.028 |  |  |  |  |  |  |  |  |
| CC(C(=O)Oc1ccc(-c2cc(=S)ss2)cc1)c1ccc2cc(OC(=O)CCCO[N+](=O)[O-])ccc2c1 (centres unmarked) [NOSH-7, 6-(1-oxo-1-(4-(3-thioxo-3H-1,2-dithiol-5-yl)phenoxy)propan-2-yl)naphthalen-2-yl 4-(nitrooxy)butanoate] |  |  |  |  | 0.095 | 33,684 | 0.1 | 25,500 | 0.08 | 30,625 | 0.1 | 28,900 |
| CC1=C(CC(=O)Oc2ccc(OC(=O)CCCO[N+](=O)[O-])c(C(=O)Oc3ccc(-c4cc(=S)ss4)cc3)c2)c2cc(F)ccc2/C1=C/c1ccc([S+](C)[O-])cc1 (centres unmarked) [NOSH-8, (E)-4-(3-thioxo-3H-1,2-dithiol-5-yl)phenyl 5-(2-(5-fluoro-2-methyl-1-(4-(methylsulfinyl)benzylidene)-1H-inden-3-yl)acetoxy)-2-((4-(nitrooxy)butanoyl)oxy)benzoate] |  |  |  |  | 0.098 | 8,081 | 0.27 | 2,588 | 0.11 | 8,818 | 0.12 | 7,041 |
| COc1ccc2cc([C@H](C)C(=O)O)ccc2c1 [naproxen, reference compound] |  |  |  |  | 3200 |  |  |  | 2450 |  |  |  |
| CC1=C(CC(=O)O)c2cc(F)ccc2/C1=C\c1ccc([S+](C)[O-])cc1 (centres unmarked) [sulindac, reference compound] |  |  |  |  | 792 |  | 699 |  | 970 |  | 845 |  |
